Tests used:
[1] = test system: human lung cancer cell line A549; assay: Tumor cell growth inhibition, SRB staining, A549; type: cell-based; conditions: A549, 72 h
How it was run: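 Growth inhibition by SRB staining: 4000 cells/well seeded overnight, then compound at 100, 10, 1, 0.1 and 0.01 μM for 72 h in triplicate. Fixed with TCA, OD read at 515 nm. Inhibition rate taken against solvent control; experiment done twice.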

[2] = test system: human colon cancer cell line HCT116; assay: Tumor cell growth inhibition, SRB staining, HCT116; type: cell-based; conditions: HCT-116, HCT116, 72 h
Method: The growth inhibition assay of tumor cells was detected by sulforhodamine B (SRB) staining method. The specific steps were as follows: inoculating human colon cancer cell line HCT116 and human lung cancer cell line A549 (purchased from American Type Culture Collection, ATCC) at the logarithmic growth phase into a 96-well micro culture plate at an appropriate concentration of 4000 cells/well, 100 μL for each well; after culturing overnight, adding with the compound at different concentrations (100, 10, 1, 0.1, 0.01 μM) to react for 72 h, wherein triplicate wells were set up for each concentration, and solvent control wells with the corresponding concentration and zero wells without cells were also set up. After the completion of the reaction, the culture medium was removed from the adherent cells, the later was added with 10% (w/v) trichloroacetic acid (100 μL/well) at 4° C. to fix for 1 h, and then washed five times with distilled water. After drying at room temperature, 100 μL of SRB solution (4 mg/mL, dissolved in 1% glacial acetic acid) was added into each well, followed by incubation and staining for 15 min at room temperature. The uncombined SRB was removed by washing five times with 1% glacial acetic acid. After drying at room temperature, 100 μL of 10 mM Tris solution was added into each well, and the optical density (OD) at 515 nm was measured by a […] microplate reader. The inhibition rate of the drug to tumor cell growth was calculated according to the following equation: Inhibition rate (%)=(OD of control well-OD of drug well)/OD of control well×100%. The experiment was repeated twice.

[3] = molecular target: HSP90α (Homo sapiens (Human), UniProt P07900); assay: Fluorescence polarization (FP) HSP90-alpha target binding assay; conditions: fluorescence polarization; read-out: Target binding ability HSP90α FP IC50
How it was run: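 Displacement of 5 nM GM-BODIPY from 30 nM HSP90 measured by fluorescence polarization (ex 485/em 535 nm). Buffer: 100 mM Tris-Cl pH 7.4, 20 mM KCl, 6 mM MgCl2, 5 μg/mL BSA. Incubation 12–16 h at 4 °C. Percent inhibition from mP relative to compound-free and tracer-only controls.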

[4] = test system: A549 tumor cells; assay: In vivo efficacy, A549 transplantation tumor in nude mice; conditions: A549 xenograft, 50 mg/kg intravenously twice a week
Method: A549 tumor cells were subcutaneously inoculated in the right armpit of nude mice in 5×10^6 cells/mouse, to form a transplantion tumor. When the volume reached 100-200 mm^3, the animals were randomly divided according to tumor volume, into the negative control group (n=5), the positive control group groups (n=5 in each group), and the experimental groups (n=5 in each group). The experimental groups were respectively injected intravenously with the positive drug Luminespib (50 mg/kg) and compound 1 (50 mg/kg) at different concentrations, twice a week, and the negative control group was administrated an equal amount of solvent simultaneously. The length (A) and width (B) of the tumor were measured twice a week with a vernier caliper, and the tumor volume was calculated according to V=A×B^2/2. Relative tumor volume (RTV) was calculated as follows: RTV=Vt/V0, wherein Vt is the tumor volume at the end of the administration, and V0 is the tumor volume measured before separation and administration. The pharmacodynamic evaluation index of antitumor activity is relative tumor proliferation rate T/C (%), and the calculation formula is: T/C (%)=TRTV/CRTV×100%, wherein TRTV: RTV of the treatment group; CRTV: RTV of the negative control group. Efficacy evaluation criteria: T/C %>60% is inefficient; T/C %≤60% and P<0.05 by statistical treatment is effective. The tumor growth inhibition rate (TGI) was calculated as follows: TGI (%)={[(CVt−CV0)−(TVt−TV0)]/(CVt−CV0)}×100%
Wherein, CVt is the tumor volume of the control group at the end of the administration; CV0 is the tumor volume of the control group before separation and administration; TVt is the tumor volume of the administration group at the end of the administration; and TV0 is the tumor volume of the administration group before separation and administration. The difference in tumor volume between the administration group and the control group was examined by t-test. At the same time, the body weights of nude mice in each group were weighed twice a week to preliminarily evaluate the toxic side effects of the drug.

For `CCNC(=O)c1noc(-c2cc(C(C)C)c(O)cc2O)c1-c1ccc2c(c1)CCN(C)C2` [Example 1, 5-(2,4-dihydroxyl-5-isopropylphenyl)-N-ethyl-4-(2-methyl-1,2,3,4-tetrahydroisoquinolin-6-yl)isoxazole-3-carboxamide], the EC50 [1] was < 20 nM, the EC50 [2] was < 20 nM and the IC50 [3] was < 20 nM. For the same compound, the “TGI (%) Day 7” value ([4]; Day 7) was 20%, the “TGI (%) Day 11” value ([4]; Day 11) was 40% and the “TGI (%) Day 14 (stopping administration)” value ([4]; Day 14) was 63%. For the same compound, the “TGI (%) Day 17” value ([4]; Day 17) was 71% and the “TGI (%) Day 28” value ([4]; Day 28) was 60%.
